In series [1] the target is T1, purified bovine liver MTP (Bos taurus, UniProt P55156).
T1 construct: purified bovine liver MTP; from tissue; host or cells: bovine liver
T1 sequence (P55156 19-887 limits assumed): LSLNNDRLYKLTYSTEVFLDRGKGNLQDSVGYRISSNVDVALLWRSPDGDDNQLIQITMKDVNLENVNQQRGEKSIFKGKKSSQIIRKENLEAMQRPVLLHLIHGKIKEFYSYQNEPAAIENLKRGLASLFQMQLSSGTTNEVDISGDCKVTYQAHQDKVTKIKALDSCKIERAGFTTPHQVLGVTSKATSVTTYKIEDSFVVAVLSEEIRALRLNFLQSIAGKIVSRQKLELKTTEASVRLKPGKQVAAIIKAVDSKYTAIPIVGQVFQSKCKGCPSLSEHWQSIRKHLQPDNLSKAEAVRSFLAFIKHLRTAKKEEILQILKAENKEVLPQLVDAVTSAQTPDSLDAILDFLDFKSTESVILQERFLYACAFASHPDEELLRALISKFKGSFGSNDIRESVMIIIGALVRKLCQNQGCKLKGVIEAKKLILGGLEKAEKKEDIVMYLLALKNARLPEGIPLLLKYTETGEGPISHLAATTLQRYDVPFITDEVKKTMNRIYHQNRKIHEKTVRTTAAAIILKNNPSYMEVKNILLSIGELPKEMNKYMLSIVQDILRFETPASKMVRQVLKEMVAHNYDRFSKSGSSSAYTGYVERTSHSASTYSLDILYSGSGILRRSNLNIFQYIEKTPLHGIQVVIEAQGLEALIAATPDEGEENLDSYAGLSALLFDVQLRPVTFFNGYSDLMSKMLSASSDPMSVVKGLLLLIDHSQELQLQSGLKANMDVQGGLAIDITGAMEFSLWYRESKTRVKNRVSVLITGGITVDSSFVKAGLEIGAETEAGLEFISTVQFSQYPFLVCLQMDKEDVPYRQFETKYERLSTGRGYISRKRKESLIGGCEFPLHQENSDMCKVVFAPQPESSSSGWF
T1 sequence (P05307 21-510 partner): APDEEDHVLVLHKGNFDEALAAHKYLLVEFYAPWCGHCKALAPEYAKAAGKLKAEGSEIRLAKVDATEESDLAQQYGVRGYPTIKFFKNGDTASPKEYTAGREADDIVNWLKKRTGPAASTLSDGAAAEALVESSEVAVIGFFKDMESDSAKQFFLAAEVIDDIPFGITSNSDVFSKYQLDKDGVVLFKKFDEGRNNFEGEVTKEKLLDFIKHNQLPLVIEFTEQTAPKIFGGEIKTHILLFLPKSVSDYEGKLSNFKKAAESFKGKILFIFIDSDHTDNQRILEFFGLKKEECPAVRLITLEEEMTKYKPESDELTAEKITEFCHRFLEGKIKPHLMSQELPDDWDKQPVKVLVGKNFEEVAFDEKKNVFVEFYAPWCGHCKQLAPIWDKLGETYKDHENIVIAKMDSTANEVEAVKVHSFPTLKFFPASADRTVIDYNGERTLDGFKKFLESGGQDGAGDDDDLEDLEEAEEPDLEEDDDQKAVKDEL
The series can be described thus: Fluorescence triglyceride (NBD-TG) transfer activity assay of MTP. The format is biochemical. As to conditions: dose-dependent inhibition, FIG. 5A. An excerpt:
(§1) The present invention is directed to very selective, simple, rapid and sensitive fluorescence assays to measure triglyceride (NBD-TG) and phospholipid (NBD-PE) transfer by MTP. These assays have been modified and developed into a “mix and measure” format kit that is stable, user friendly, and consists of only two components: a master mix and purified MTP. The master mix contains all the ingredients necessary for MTP activity. In this assay, MTP transfers fluorescent lipids from donor to acceptor vesicles. Lipid fluorescence in these vesicles is mostly quenched. Unquenched fluorescence (˜0.05% of total fluorescence) is measured as background. During the transfer of fluorescent lipids by MTP, fluorescence is exposed to aqueous phase and detected by the Fluorimeter. These fluorescence measurements represent the amount being transferred. Inclusion of antagonist during these assays reduces increases in fluorescence and represents inhibition of the transfer activity. […]
(§2) Increasing amounts of DMSO (0-1%) had no significant effect on both triglyceride (FIG. 3A) and phospholipid (FIG. 3B) transfer activities of MTP. […] Evaluation of signal-to-noise ratio of assay across the entire 96-well plate: Fluorescence in the blank (n=48) and MTP (n=48) was used to determine the values of noise and signal, respectively. […]

Series [2] concerns the target T1, purified bovine liver MTP. The series can be described thus: Fluorescence phospholipid (NBD-PE) transfer activity assay of MTP. The format is biochemical. To be noted: dose-dependent inhibition, FIG. 5B.
Description: as §1, §2

For series [3] the following is noted: in vivo; cited from earlier work.
For series [4] the following is noted: guinea pigs; cited from earlier work.

With `O=C(Nc1ccc2c(c1)CCN(Cc1ncn[nH]1)C2)c1ccccc1-c1ccc(C(F)(F)F)cc1` [CP-346086], the 50% inhibitory concentration (IC50) in series [1] was 0.33 nM; in series [2] it was 9.4 nM.

Turning to `COc1cccc(C(=O)Nc2ccc3c(c2)CCN(C(=O)Oc2ccccc2)C3)c1-c1ccc(C(F)(F)F)cc1` [SLx-4090], in series [3], the plasma lipids result is on record as “lower plasma lipids”.

`CCOC(=O)C(COC(=O)Cc1ccc(NC(=O)c2ccccc2-c2ccc(C(F)(F)F)cc2)c(C(=O)N(C)C)c1)(C(=O)OCC)c1ccccc1` [JTT-130]: in series [4], the hepatic triglyceride entry was “without increasing hepatic triglyceride”; the “plasma triglyceride and LDL cholesterol” value is “lower plasma triglyceride and LDL cholesterol”.

By IC50 is commonly meant the concentration that gives 50% inhibition.

The values above are taken from patent publication US20120016000A1, “METHOD TO ASSAY PHOSPHOLIPID AND TRIGLYCERIDE TRANSFER ACTIVITY OF MICROSOMAL TRIGLYCERIDE TRANSFER PROTEIN” (priority 2010, published 2012).
